The values below come from US8921270B2, “Method for pre-emergent weed control using triazine-based herbicide” (Amvac Chemical Corporation, priority 2011, dated 2014).

Like-named read-outs stand apart in the source and are kept apart here.

For data set [1], the system named is corn. In words: Crop tolerance (corn) field trial, Laurel, Md., light soil (Example 2). In kind it is in vivo. The method, then:
(§1) Several scientific and replicated field research trials were conducted in multiple locations to evaluate weed control and crop tolerance of herbicide compositions containing about 80% by weight of ametryn active ingredient in the form of a water dispersible granule (WDG). The herbicide compositions were applied to the soil surface with or without weeds present at specific intervals i) before planting (preplant), ii) prior to planting and incorporated into the soil (preplant incorporated), and iii) after planting of the corn, but prior to emergence (preemergence).
(§2) Small plot research trials were conducted using a statistical design known as Randomized Complete Block Design (RCBD), which assumes that a population of experimental units can be divided into a number of relatively homogeneous subpopulations or blocks. […] In the analysis, the variation among blocks can be partitioned out of the experimental error (MSE), thereby reducing this quantity and increasing the power of the test. […]
(§3) Efficacy on weeds and crop tolerance evaluations were conducted at specified intervals for each trial. […] Crop tolerance was evaluated at intervals of 7 to 14, 21 to 28, and 42 to 56 days after corn emergence in these trials. […] In an additional trial, efficacy of ametryn at rates of 1.2, 1.6 and 2.4 lb ai/a applied PRE was evaluated on grass and broadleaf weeds at the same intervals as the earlier trials. […]

Data set [2] relates to corn. To be noted: in vivo. As for the experimental part: as §1, §2, §3
The test system of the next data set is Goosegrass. In words: Weed control field trial, Laurel, Md., light textured soil (Example 4). The data set is classed as in vivo. Particulars: 0.8, 1.6, 2.4 lb ai/a; 14 days preplant, 2 days preplant, PRE; 21 and 35 days after corn emergence. The method, then:
as §1, §2, §3

A further data set deals with Lambsquaters. The description is as above. In kind it is in vivo. To be noted: 0.8, 1.6, 2.4 lb ai/a; 14 days preplant, 2 days preplant, PRE; 21 and 35 days after corn emergence. As for the experimental part: as §1, §2, §3
For another data set, the system named is Cocklebur. Put plainly: Weed control field trial, Laurel, Md., light textured soil (Example 5). In kind it is in vivo. To be noted: 1.2, 1.6, 2.4 lb ai/a PRE; 27 and 56 days after corn emergence. As for the experimental part: as §1
(§4) Small plot research trials were conducted using a statistical design known as Randomized Complete Block Design (RCBD), which assumes that a population of experimental units can be divided into a number of relatively homogeneous subpopulations or blocks. The treatments are then randomly assigned to experimental units such that each treatment occurs equally often (usually once) in each block—i.e., each block contains all treatments. Blocks usually represent levels of naturally occurring differences or sources of variation that are unrelated to the treatments. In the analysis, the variation among blocks can be partitioned out of the experimental error (MSE), thereby reducing this quantity and increasing the power of the test. See, Clewer, A. G., and D. H. Scarisbrick. 2001. Practical statistics and experimental design for plant and crop science. John Wiley & Sons Ltd., New York. crop science. Treatment size was typically 4 rows of corn on 30-inch row spacing×30 feet long replicated 3 to 4 times. Preplant, preplant incorporated (PPI), or preemergence (PRE) treatments were uniformly applied with a hand-held backpack sprayer pressurized with compressed air or carbon dioxide (CO2) as the propellant to simulate commercial scale application. Treatments were applied using flat fan nozzle or spray nozzles at from 30 to 35 pounds per square inch (psi) delivering from 15 to 20 gallons of finished spray solution per acre.
(§5) Efficacy on weeds and crop tolerance evaluations were conducted at specified intervals for each trial. Ametryn herbicide (80% WDG) was applied to the soil at the times relative to planting as indicated at rates of 0.8, 1.2, 1.6, and 2.4 pounds of active ingredient per acre (lb ai/a) at various days preplant up to right before planting (0 day preplant), or immediately following planting (PRE), but before crop emergence. Crop tolerance was evaluated at intervals of 7 to 14, 21 to 28, and 42 to 56 days after corn emergence in these trials. Crop injury, if observed, was reported on a 0 to 100% visual rating scale and the type of injury (e.g., stunting) was noted. The efficacy of ametryn at a rate of 0.8, 1.2, 1.6 and 2.4 lbs ai/a applied 7 to 14 days preplant was evaluated on grass and broadleaf weeds at intervals of 7 to 14, 21 to 28, and 42 to 56 days after corn emergence. Efficacy trials were also conducted in no tillage and reduced tillage cropping systems, allowing for evaluations of existing weeds at application (i.e., burndown) and residual control of weeds which germinate following application. In an additional trial, efficacy of ametryn at rates of 1.2, 1.6 and 2.4 lb ai/a applied PRE was evaluated on grass and broadleaf weeds at the same intervals as the earlier trials. Efficacy in the later trials was conducted in both conventional and reduced tillage systems, which allowed for evaluations of residual weed control following application. A local commercial corn hybrid was planted in each trial location.
(§6) A weed control field trial was conducted in Laurel, Md. on a light textured soil. Ametryn herbicide (80% WDG) was applied preemergence to bare soil in the field to Giant Foxtail, Velvetleaf, Waterhemp, Giant Ragweed, Morningglory, and Cocklebur at rates of 1.2, 1.6 and 2.4 pounds of active ingredient per acre (lb ai/a) immediately following planting (PRE) and prior to corn emergence. The application volume was between 15 and 25 gallons per acre. […]

The subject of data set [3] is Giant Foxtail. Described as above. Particulars: 1.2, 1.6, 2.4 lb ai/a PRE; 27 and 56 days after corn emergence. The data set is classed as in vivo. The method, then: as §1, §4, §5, §6
The test system of a further data set is Giant Ragweed. Described as above. The data set is classed as in vivo. Particulars: 1.2, 1.6, 2.4 lb ai/a PRE; 27 and 56 days after corn emergence. As for the experimental part:
as §1, §4, §5, §6

The subject of the next data set is Morningglory. The description is as above. In kind it is in vivo. To be noted: 1.2, 1.6, 2.4 lb ai/a PRE; 27 and 56 days after corn emergence. The method, then: as §1, §4, §5, §6
Data set [4] has as its system Velvetleaf. The data set is described as above. The data set is classed as in vivo. To be noted: 1.2, 1.6, 2.4 lb ai/a PRE; 27 and 56 days after corn emergence. The method, then: as §1, §4, §5, §6
The subject of data set [5] is Waterhemp. The data set is described as above. Particulars: 1.2, 1.6, 2.4 lb ai/a PRE; 27 and 56 days after corn emergence. The data set is classed as in vivo. As for the experimental part:
as §1, §4, §5, §6

Data set [6] deals with Giant Foxtail. In words: Weed control field trial, Fishers, Ind., fine textured soil (Example 8). In kind it is in vivo. Particulars: PRE, rate of 1.6 lb ai/a. As for the experimental part: as §1, §4
(§7) Efficacy on weeds and crop tolerance evaluations were conducted at specified intervals for each trial. […] Crop tolerance was evaluated at intervals of 7 to 14, 21 to 28, and 42 to 56 days after corn emergence in these trials. […] The efficacy of ametryn at a rate of 0.8, 1.2, 1.6 and 2.4 lbs ai/a applied 7 to 14 days preplant was evaluated on grass and broadleaf weeds at intervals of 7 to 14, 21 to 28, and 42 to 56 days after corn emergence. […] In an additional trial, efficacy of ametryn at rates of 1.2, 1.6 and 2.4 lb ai/a applied PRE was evaluated on grass and broadleaf weeds at the same intervals as the earlier trials. […]

The subject of a further data set is Lambsquarters. The description is as above. The data set is classed as in vivo. Particulars: PRE, rate of 1.6 lb ai/a. The method, then:
as §1, §4, §7

Another data set has as its system Redroot Pigweed. The description is as above. The data set is classed as in vivo. To be noted: PRE, rate of 1.6 lb ai/a. As for the experimental part:
as §1, §4, §7

The subject of data set [7] is corn. To be noted: in vivo. The method, then: as §1, §2, §3
The source holds these as a separate data set.

In the next data set the test system is Green Foxtail. Put plainly: Weed control field trial, York, Nebr., medium textured soil (Example 11). In kind it is in vivo. Particulars: PRE; 4 weeks after application. The method, then: as §1
(§8) Small plot research trials were conducted using a statistical design known as Randomized Complete Block Design (RCBD), which assumes that a population of experimental units can be divided into a number of relatively homogeneous subpopulations or blocks. The treatments are then randomly assigned to experimental units such that each treatment occurs equally often (usually once) in each block—i.e., each block contains all treatments. Blocks usually represent levels of naturally occurring differences or sources of variation that are unrelated to the treatments. In the analysis, the variation among blocks can be partitioned out of the experimental error (MSE), thereby reducing this quantity and increasing the power of the test. See, Clewer, A. G., and D. H. Scarisbrick. 2001. Practical statistics and experimental design for plant and crop science. John Wiley & Sons Ltd., New York. crop science. […]
as §7

The subject of data set [8] is Velvetleaf. The data set is described as above. In kind it is in vivo. To be noted: PRE; 4 weeks after application. As for the experimental part:
as §1, §8, §7

Data set [9] concerns Waterhemp. The description is as above. To be noted: PRE; 4 weeks after application. The data set is classed as in vivo. As for the experimental part:
as §1, §8, §7

Regarding `CCNc1nc(NC(C)C)nc(SC)n1` [ametryn, 2-ethylamino-4-isopropylamino-6-methylthio-s-triazine], the Corn yield entry with corn [1] (even though visual injury was measured at certain times) is “no reduction in yield”. The Corn injury result is recorded as “non-significant or no injury” in the data set with corn [1] (in vivo) and “No injury” in the data set with corn [2]. In addition, the Percent weed control result with Goosegrass, in the data set on Lambsquaters, with Cocklebur, in the data set with Giant Foxtail [3], with Giant Ragweed and in the data set on Morningglory was “significant improvement of weed control over the untreated treatment” each time. Further, the Percent weed control entry in the data set on Velvetleaf [4] and in the data set with Waterhemp [5] was “significant improvement of weed control over the untreated treatment” throughout. The Weed control entry in the data set on Giant Foxtail [6] is “moderate weed control”; in the data set with Lambsquarters, “good weed control”; in the data set with Redroot Pigweed, “good weed control”; in the data set with Green Foxtail, “good control”; in the data set with Velvetleaf [8] it was “moderate control”; with Waterhemp [9], “good control”. For the same compound, the “Percent corn injury (safety to corn)” value with corn [7] is “acceptable safety”.
